Here are results for three compounds from PMC13086964, “USP7 deubiquitinase stabilizes FAN1 to support DNA crosslink repair and suppress CAG repeat expansion” (Nature Communications, 2026).

Where a SMILES comes first, the peptide text is derived from it. The star is where a group is joined. Cbz = O=C(OCc1ccccc1)*

One test concerns GFP-FAN1. Put plainly: cycloheximide chase, FAN1 protein half-life. The format is cell-based, human. Conditions: U2OS eGFP-FAN1 cells, CHX 100 μg/ml, n = 3. Here is the method:
If not stated otherwise, cells were lysed in RIPA buffer (50 mM Tris-HCl, pH 7.5, 150 mM NaCl, 1% IGEPAL, 0.5% sodium deoxycholate, 0.1% SDS) supplemented with phosphatase inhibitors (20 mM NaF and 1 mM Na3VO4) and protease inhibitors (1 mM benzamidine and 0.1 mM PMSF), incubated with Benzonase (Merck) for at least 30 min at 4 °C, and clarified by centrifugation. Proteins were resolved by SDS-PAGE and transferred to nitrocellulose membranes. Immunoblots were performed with the indicated antibodies, and proteins were visualized using the Advansta WesternBright ECL reagent and the Fusion Solo S imaging system. Relative protein levels were determined by quantification of the protein of interest band intensity normalized to the loading control with the ImageJ software. […]
were determined by quantification of FAN1 band intensity (normalized to α-Tubulin) with the ImageJ software. […] 24 h post induction, cells were either mock-treated or treated with CHX (100 μg/ml) for the indicated time points and whole-cell lysates were analysed by immunoblotting (top panel). Relative GFP-FAN1 protein levels were determined by quantification of GFP-FAN1 band intensity (normalized to GAPDH) with the ImageJ software (bottom panel; siCtrl: black square; siUSP7#1: blue triangle; siUSP7#2: cyan inverted triangle). […] Inputs and recovered protein complexes were analysed by immunoblotting. […]

For another test, the system named is GFP-FAN1 protein level. Put plainly: immunoblot of GFP-FAN1 protein levels, U2OS eGFP-FAN1 cells. The format is cell-based, human. Particulars: USP7-depleted U2OS eGFP-FAN1 cells, MG-132 10 μM for 6 h. Here is the method: (§1) Fig. 3 USP7 deubiquitinates FAN1 controlling its protein levels. A RPE-1 parental and p53 KO cell lines were transfected with either non-targeting (Ctrl) or USP7 siRNA oligos. 48 h later, whole-cell lysates were analysed by immunoblotting. B Doxycycline-inducible U2OS^eGFP-FAN1 cells were transfected with either non-targeting (Ctrl) or USP7 siRNA oligos. 24 h later, GFP-FAN1 expression was induced with Dox (100 ng/ml) for 24 h and whole-cell lysates were analysed by immunoblotting. C Same cells as in B were induced with Dox (100 ng/ml). 24 h later, cells were either mock-treated with DMSO (–) or treated (+) with either FT671 or GNE-6640 (10 μM) for 24 h and whole-cell lysates were analysed by immunoblotting. D Same cells as in B were transfected with either non-targeting (Ctrl) or USP7 siRNA oligos. […] 24 h post induction, cells were either mock-treated (−) or treated (+) with MG-132 (10 μM) for 6 h and whole-cell lysates were analysed by immunoblotting. […] 24 h post induction, whole-cell lysates were analysed by immunoblotting. […] Inputs and recovered protein complexes were analysed by immunoblotting. […] Inputs and recovered protein complexes were analysed by immunoblotting. […] In (A–E), relative FAN1 protein levels were determined by quantification of FAN1 band intensity (normalized to GAPDH or Lamin B1 loading controls) with the ImageJ software. […]

For the next test, the system named is FAN1 protein level. Put plainly: immunoblot of FAN1 protein levels, RPE-1 cells. Particulars: USP7-depleted RPE-1 cells, MG-132 10 μM for 6 h. The format is cell-based, human. Here is the method: as §1
The subject of another test is FAN1. Put plainly: pull-down of MBP-His-FAN1 by biotin-tagged USP7 fragments. The format is binding, human. Conditions: biotin-tagged USP7 fragments 6 µg, MBP-His-FAN1 1 µg. As for the experimental part: All plasmids were transformed into BL21(DE3)-pBirAcm cells. The cells were grown using a Large-scale EXpression (LEX) bioreactor at 37 °C. Once OD600 reached 0.7, the temperature was reduced to 15 °C. At OD600 0.8-1, expression of biotinylated proteins was induced by adding 25 mg/L biotin and 0.5 mM isopropyl β-d-1-thiogalactopyranoside (IPTG), and growth continued overnight. Cell cultures were harvested by centrifugation at 6500 g, 10 min, 10 °C (JLA8.1000). Pellets were flash-frozen in liquid nitrogen and stored at −80 °C prior to purification. Cell pellets were thawed, diluted with pre-chilled resuspension buffer (20 mM HEPES pH7.4, 500 mM NaCl, 5% (v/v) glycerol, 1 mM TCEP) and supplemented with 3 μg/ml benzonase, 2 mM MgSO4 and 0.8 mM PMSF/benzamidine-HCl. The mixture was homogenized and lysed by sonication, 60 cycles of 5 s pulse followed by 7.5 s rest. Cell lysates were clarified by centrifugation at 40000 g, 1 hr, 10 °C (JLA16.250). […] Protein purity was analysed by SDS-PAGE and identity was confirmed by mass spectrometry. […]
Transformed clones of chemocompetent BL21 bacteria were picked and inoculated in LB medium supplemented with 50 μg/ml kanamycin, subsequently incubated at 37 °C overnight under agitation at 250 rpm. […] Purity of the protein was assessed by boiling in SDS sample buffer and separating by SDS-PAGE followed by staining using Coomassie Blue. […]

Consider `C[C@@H]1C[C@@H]([C@H](O)CC2CC(=O)NC(=O)C2)C(=O)[C@@H](C)C1` [CHX, cycloheximide], for which the FAN1 protein half-life entry in the test with GFP-FAN1 was “reduced protein half-life”.
Take `CC(C)C[C@@H](C=O)NC(=O)[C@H](CC(C)C)NC(=O)[C@H](CC(C)C)NC(=O)OCc1ccccc1` [MG132] (Cbz-Leu-Leu-Leu-aldehyde): the “FAN1 levels with proteasome inhibitor” value with GFP-FAN1 protein level and in the test with FAN1 protein level was “FAN1 levels were restored” each time.
In the case of “TRAF domain: purified recombinant biotin-tagged USP7 fragment”, the “binding of USP7 domain to FAN1 in vitro” value in the test with FAN1 is “strongest”.
